Holding throughout (assay type): cell-based
In experiment [1] the target is serotonin transporter (5-HTT) (Homo sapiens, UniProt P31645). The experiment is described as follows: [3H]5-HT uptake inhibition at the serotonin transporter. The settings on record: for 5-HT/DA ratio: ratio of uptake Ki, 5-HT vs DA; for Ki: read-out: [3H]5-HT uptake, Ki ± SE; for higher activity at 5-HTT vs. DAT: selectivity 5-HTT vs DAT. The source says: (§1) These novel ligands have been tested for their binding affinity at the DAT as well as for the inhibition of reuptake of NE, 5-HT, and DA at their specific transporters.

Experiment [2] deals with norepinephrine transporter (NET) (Homo sapiens, UniProt P23975). The experiment is described as follows: [3H]NE uptake inhibition at the norepinephrine transporter. To be noted: for NE/5-HT ratio / NE/DA ratio: ratio of uptake Ki; for NE/5-HT ratio: NE vs 5-HT; for NE/DA ratio: NE vs DA; for Ki: read-out: [3H]NE uptake, Ki ± SE.
Source text: as §1

Experiment [3] has as its target dopamine transporter (DAT) (Homo sapiens, UniProt Q01959). The experiment is described as follows: [3H]DA uptake inhibition at the dopamine transporter. To be noted: read-out: [3H]DA uptake, Ki ± SE.
Source text: as §1

serotonin transporter (5-HTT), sequence (P31645 whole entry, species assumed): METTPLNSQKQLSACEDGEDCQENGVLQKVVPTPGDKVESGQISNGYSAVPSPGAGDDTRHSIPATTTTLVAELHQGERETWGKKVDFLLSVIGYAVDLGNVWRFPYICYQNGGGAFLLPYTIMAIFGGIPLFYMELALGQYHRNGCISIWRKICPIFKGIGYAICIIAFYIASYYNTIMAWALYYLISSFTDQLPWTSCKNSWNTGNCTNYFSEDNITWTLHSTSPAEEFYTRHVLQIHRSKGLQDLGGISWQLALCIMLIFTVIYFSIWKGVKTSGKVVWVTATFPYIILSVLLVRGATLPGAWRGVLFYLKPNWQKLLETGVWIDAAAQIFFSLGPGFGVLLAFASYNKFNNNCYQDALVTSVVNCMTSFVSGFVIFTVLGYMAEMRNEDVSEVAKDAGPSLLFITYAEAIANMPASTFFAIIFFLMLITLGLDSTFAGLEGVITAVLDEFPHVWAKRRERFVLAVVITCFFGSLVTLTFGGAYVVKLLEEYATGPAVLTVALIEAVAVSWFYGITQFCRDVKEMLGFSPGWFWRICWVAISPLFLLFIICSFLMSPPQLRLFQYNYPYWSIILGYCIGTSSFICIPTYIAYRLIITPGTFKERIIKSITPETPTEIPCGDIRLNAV
norepinephrine transporter (NET), sequence (P23975 whole entry, species assumed): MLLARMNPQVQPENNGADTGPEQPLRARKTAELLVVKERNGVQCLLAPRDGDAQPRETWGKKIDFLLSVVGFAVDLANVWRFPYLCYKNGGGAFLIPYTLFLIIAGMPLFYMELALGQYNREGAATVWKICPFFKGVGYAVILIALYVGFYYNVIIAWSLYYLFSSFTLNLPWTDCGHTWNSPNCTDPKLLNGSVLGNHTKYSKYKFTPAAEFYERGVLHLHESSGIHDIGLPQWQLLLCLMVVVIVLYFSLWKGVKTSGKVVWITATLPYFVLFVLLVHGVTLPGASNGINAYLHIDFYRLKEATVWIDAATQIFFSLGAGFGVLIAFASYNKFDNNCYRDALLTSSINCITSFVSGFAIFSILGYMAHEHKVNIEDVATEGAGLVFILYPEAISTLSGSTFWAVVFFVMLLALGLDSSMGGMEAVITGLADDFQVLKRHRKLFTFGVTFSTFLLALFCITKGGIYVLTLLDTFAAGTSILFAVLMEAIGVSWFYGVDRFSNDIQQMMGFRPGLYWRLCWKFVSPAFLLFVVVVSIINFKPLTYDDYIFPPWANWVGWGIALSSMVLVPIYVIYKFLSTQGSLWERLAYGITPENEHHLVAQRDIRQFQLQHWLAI
dopamine transporter (DAT), sequence (Q01959 whole entry, species assumed): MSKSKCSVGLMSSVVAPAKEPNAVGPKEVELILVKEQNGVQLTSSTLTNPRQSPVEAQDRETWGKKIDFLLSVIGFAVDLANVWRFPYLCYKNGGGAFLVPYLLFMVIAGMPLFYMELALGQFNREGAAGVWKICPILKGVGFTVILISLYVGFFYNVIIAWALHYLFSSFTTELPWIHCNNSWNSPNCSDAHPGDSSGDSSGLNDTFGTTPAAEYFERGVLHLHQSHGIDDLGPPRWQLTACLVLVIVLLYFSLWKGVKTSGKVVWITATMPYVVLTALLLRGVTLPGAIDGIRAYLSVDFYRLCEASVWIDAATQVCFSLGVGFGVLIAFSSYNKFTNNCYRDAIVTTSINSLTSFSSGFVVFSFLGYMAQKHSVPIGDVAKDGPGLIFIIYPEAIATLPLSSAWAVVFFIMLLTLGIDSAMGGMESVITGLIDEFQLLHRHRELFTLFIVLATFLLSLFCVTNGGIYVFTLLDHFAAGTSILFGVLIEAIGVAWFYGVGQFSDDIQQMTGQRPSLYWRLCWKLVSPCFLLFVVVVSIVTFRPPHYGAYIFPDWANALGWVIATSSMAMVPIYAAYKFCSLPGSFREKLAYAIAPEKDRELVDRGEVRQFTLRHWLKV

As for `COC(=O)C1C2CC3CCC1N3CC2=Cc1ccccc1` (single isomer, unassigned) [5a], in experiment [1], the 5-HT/DA ratio was determined as 2.36 and the Ki is 1140 ± 70 nM. In experiment [2], the NE/5-HT ratio turned out to be 0.05, the NE/DA ratio was determined as 0.11 and the Ki is 53 ± 16.1 nM. For the same compound, in experiment [2] (selectivity NET vs 5-HTT), the “Ki at the 5-HTT higher than at the NET” value is on record as 20 fold. In experiment [2] (selectivity NET vs DAT), the “Ki at the DAT higher than at the NET” value is reported as 9 fold. Moreover, the Ki in experiment [3] stood at 481 ± 10.8 nM.
On to `COC(=O)C1C2CC3CCC1N3CC2=Cc1ccccc1` (single isomer, unassigned) [compound 6], for which, in experiment [1], the 5-HT/DA ratio amounted to 1.48 and the Ki was determined as 7480 ± 250 nM. Further, the “activity at all three transporters” value in experiment [2] (NET, 5-HTT and DAT) is “only weakly active”. Further, in experiment [2], the NE/5-HT ratio was found to be 0.2, the NE/DA ratio is 0.3 and the Ki was determined as 1530 ± 150 nM. For the same compound, the Ki in experiment [3] worked out at 5070 ± 310 nM.
`COC(=O)C1C2CC3CCC1N3CC2=Cc1ccc(Cl)c(Cl)c1` (stereo not shown) [5b]: in experiment [1], the 5-HT/DA ratio came out at 0.01, the Ki was found to be 19.8 ± 0.5 nM and the “higher activity at 5-HTT vs. DAT” value is listed as “about 100 fold”. Besides, the “higher activity at 5-HTT vs. the NET” value in experiment [1] (selectivity 5-HTT vs NET) is reported as “about 50 fold”. Further, in experiment [2], the NE/5-HT ratio turned out to be 50.6, the NE/DA ratio amounted to 0.52 and the Ki came out at 1000 ± 280 nM. Further, the Ki in experiment [3] stood at 1920 ± 260 nM.
Consider `COC(=O)C1C2CC3CCC1N3CC2=Cc1ccc(OC)cc1` (stereo not shown) [5c], for which, in experiment [1], the 5-HT/DA ratio is listed as 0.02, the Ki stood at 55.7 ± 3.8 nM and the “higher activity at 5-HTT vs. DAT” value is given as 50 fold. In experiment [2], the NE/5-HT ratio is 3.37, the NE/DA ratio is 0.06 and the Ki was found to be 187 ± 4.6 nM. For the same compound, the Ki in experiment [3] was determined as 3130 ± 160 nM.
For `COC(=O)C1C2CC3CCC1N3CC2=Cc1ccc(F)cc1` (stereo not shown) [5d], in experiment [1], the 5-HT/DA ratio came out at 0.05 and the Ki amounted to 335 ± 45.5 nM. Besides, in experiment [2] (fluoro substituent, 5d vs. 5a), the “decrease of norepinephrine reuptake activity vs. 5a” value is on record as “about 10 factor”. Also, in experiment [2], the NE/5-HT ratio turned out to be 1.74, the NE/DA ratio is 0.09 and the Ki amounted to 584 ± 163 nM. In addition, in experiment [3], the Ki was found to be 6620 ± 460 nM.
Regarding `COC(=O)C1C2CC3CCC1N3CC2=Cc1cccc2ccccc12` (stereo not shown) [5e], in experiment [1], the 5-HT/DA ratio came to 0.01 and the Ki is 121 ± 3.4 nM. Moreover, in experiment [2], the NE/5-HT ratio was 44.5, the NE/DA ratio was 0.55 and the Ki is 5370 ± 580 nM. Besides, the Ki in experiment [3] is 9720 ± 700 nM.
As for `COC(=O)C1C2CC3CCC1N3CC2=Cc1ccco1` (stereo not shown) [5f], in experiment [1], the 5-HT/DA ratio stood at 1.82 and the Ki amounted to 3680 ± 190 nM. In addition, in experiment [2], the NE/5-HT ratio came out at 0.03, the NE/DA ratio is given as 0.05 and the Ki was found to be 111 ± 12.7 nM. Moreover, the Ki in experiment [3] came to 2020 ± 190 nM.
In the case of `COC(=O)C1C2CC3CCC1N3CC2=Cc1ccoc1` (stereo not shown) [5g], in experiment [1], the 5-HT/DA ratio amounted to 0.26 and the Ki is 498 ± 65.5 nM. In experiment [2], the NE/5-HT ratio was 0.33, the NE/DA ratio was determined as 0.09 and the Ki stood at 164 ± 2.8 nM. The Ki in experiment [3] was found to be 1880 ± 10 nM.
